# Counter-ions that a name gives are not always drawn.
# Experiments:
# [1] = molecular target: T1, human 5-HT2C-INI receptor (Homo sapiens, UniProt P28335); experiment: Calcium flux assay; format: cell-based; settings: for Emax: read-out: 5-HT2C Emax, Table 1, normalized to % 5-HT, mean ± SEM (n = 3), NA = no activity up to 10 μM; for 5-HT2C EC50: Table 1, FLIPR calcium flux, calculated from averaged pEC50
# T1 sequence (P28335 33-458): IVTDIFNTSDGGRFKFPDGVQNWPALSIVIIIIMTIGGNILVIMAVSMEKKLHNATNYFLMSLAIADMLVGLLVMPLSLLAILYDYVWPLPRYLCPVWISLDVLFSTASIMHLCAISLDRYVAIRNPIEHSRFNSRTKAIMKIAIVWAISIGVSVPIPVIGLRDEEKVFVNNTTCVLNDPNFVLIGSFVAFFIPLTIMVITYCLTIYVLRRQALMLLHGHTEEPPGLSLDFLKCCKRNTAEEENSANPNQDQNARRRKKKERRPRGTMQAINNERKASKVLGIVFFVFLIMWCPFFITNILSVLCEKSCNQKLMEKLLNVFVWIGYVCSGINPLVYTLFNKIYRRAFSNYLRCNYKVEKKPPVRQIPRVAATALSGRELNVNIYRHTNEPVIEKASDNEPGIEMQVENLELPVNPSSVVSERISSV
# 5-HT2B [2] = molecular target: T2, 5-HT2B (Homo sapiens, UniProt P41595); settings: cited from earlier work
# 5-HT2A [3] = molecular target: T3, 5-HT2A (Homo sapiens, UniProt P28223); settings: cited from earlier work
# 5-HT2C [4] = molecular target: T4, 5-HT2C (Homo sapiens, UniProt P28335); settings: cited from earlier work
# T4 sequence (P28335 33-458): T1 sequence (P28335 33-458)
# [5] = molecular target: T1, human 5-HT2C-INI receptor; experiment: Tango β-arrestin-2 recruitment assay; format: cell-based; settings: for β-arrestin recruitment activity: 5-HT2C
# 5-HT2C [6] = molecular target: T4, 5-HT2C; experiment: Binding affinity
# 5-HT2B [7] = molecular target: T2, 5-HT2B; experiment: Calcium flux assay; format: cell-based
# 5-HT2A [8] = molecular target: T3, 5-HT2A; experiment: Calcium flux assay; format: cell-based; settings: read-out: 5-HT2A Emax
# C57BL/6J mice [9] = experiment: Amphetamine; format: in vivo, mouse; settings: AMPH 3 mg/kg, 90 min
# C57BL/6J mice [10] = experiment: Phencyclidine; format: in vivo, mouse; settings: PCP 5 mg/kg, 60 min
# C57BL/6J mice [11] = experiment: Baseline; format: in vivo, mouse; settings: 0–15 min, male C57BL/6J mice
# CYP3A4 = CYP3A4 (Homo sapiens, UniProt P08684); experiment: in vitro; settings: human liver microsomes, probe midazolam
# CYP2D6 = CYP2D6 (Homo sapiens, UniProt P10635); experiment: in vitro; settings: human liver microsomes, probe dextromethorphan
# [12] = test system: serotonin receptors, dopamine receptors, monoamine transporters, and other selected CNS targets; experiment: Off-target binding panel; settings: panel of CNS targets
# [13] = cited from earlier work
# T2 sequence (P41595 whole entry): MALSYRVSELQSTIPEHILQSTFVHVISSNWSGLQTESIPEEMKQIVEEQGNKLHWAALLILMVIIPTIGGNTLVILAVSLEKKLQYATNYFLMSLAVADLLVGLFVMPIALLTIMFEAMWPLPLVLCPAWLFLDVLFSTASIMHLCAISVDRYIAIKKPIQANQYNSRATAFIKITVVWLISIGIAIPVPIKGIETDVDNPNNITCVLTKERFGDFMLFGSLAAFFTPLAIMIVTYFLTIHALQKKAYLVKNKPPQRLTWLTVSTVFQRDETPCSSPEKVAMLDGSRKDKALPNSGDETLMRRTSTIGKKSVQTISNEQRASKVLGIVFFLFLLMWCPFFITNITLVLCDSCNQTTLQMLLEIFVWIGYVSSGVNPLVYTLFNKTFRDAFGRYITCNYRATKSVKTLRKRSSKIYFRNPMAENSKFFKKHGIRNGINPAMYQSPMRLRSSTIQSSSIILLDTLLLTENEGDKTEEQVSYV
# T3 sequence (P28223 whole entry): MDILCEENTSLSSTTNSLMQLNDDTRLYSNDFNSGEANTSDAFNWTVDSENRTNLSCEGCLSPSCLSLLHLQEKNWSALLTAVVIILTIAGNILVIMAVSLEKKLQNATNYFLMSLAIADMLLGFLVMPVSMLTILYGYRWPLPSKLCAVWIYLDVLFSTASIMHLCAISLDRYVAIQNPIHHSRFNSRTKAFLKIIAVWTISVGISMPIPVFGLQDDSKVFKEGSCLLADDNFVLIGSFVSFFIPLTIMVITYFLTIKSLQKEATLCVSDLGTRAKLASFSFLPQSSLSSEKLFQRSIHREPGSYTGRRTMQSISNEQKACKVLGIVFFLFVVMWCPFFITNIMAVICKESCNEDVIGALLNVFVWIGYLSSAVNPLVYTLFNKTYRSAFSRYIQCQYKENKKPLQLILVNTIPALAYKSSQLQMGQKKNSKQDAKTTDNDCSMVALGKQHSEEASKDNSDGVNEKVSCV
# Chain of CYP2D6 (P10635 whole entry): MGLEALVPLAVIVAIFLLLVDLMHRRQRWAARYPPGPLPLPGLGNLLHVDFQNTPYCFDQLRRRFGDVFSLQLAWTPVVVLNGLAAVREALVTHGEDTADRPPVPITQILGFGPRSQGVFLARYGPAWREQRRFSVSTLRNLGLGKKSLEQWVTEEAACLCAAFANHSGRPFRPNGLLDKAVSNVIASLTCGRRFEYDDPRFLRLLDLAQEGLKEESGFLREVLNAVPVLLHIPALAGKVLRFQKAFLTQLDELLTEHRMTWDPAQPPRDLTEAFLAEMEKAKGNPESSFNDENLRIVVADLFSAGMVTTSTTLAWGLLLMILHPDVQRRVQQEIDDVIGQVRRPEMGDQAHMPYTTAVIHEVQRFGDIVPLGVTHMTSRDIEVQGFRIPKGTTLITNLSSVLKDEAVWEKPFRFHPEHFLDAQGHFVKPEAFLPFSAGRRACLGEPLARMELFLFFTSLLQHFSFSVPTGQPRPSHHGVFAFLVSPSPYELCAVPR
# Chain of CYP3A4 (P08684 whole entry): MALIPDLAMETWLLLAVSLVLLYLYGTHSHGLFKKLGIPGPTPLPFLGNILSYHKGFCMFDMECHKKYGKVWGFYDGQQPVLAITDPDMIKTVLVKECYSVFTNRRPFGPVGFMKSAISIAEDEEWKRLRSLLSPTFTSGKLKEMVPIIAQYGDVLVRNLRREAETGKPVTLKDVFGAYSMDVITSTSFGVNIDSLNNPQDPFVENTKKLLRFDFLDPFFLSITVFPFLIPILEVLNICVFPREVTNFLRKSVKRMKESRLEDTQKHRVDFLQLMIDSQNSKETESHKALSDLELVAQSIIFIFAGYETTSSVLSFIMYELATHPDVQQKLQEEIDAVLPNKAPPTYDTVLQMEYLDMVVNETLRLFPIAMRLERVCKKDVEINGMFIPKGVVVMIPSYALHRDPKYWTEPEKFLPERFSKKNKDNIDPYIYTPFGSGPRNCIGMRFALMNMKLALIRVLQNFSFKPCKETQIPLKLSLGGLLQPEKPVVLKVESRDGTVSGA
structure (smiles),measurement,setting,value
"COc1ccccc1CN(C)CC1CC1c1cc(F)ccc1OC.Cl (racemic) [(±)-28, 1-[2-(5-Fluoro-2-methoxyphenyl)cyclopropyl]-N-(2-methoxybenzyl)-N-methylmethanamine Hydrochloride]",reduction of 5-HT2C potency compared to the parent compound (+)-19,[1]; racemate vs (+)-19,15 fold
CNc1nc(Cc2ccccc2)nc2c1CCNC[C@@H]2C [PF-4479745],agonism at 5-HT2B,5-HT2B [2],no measurable agonism
same,agonism at 5-HT2A,5-HT2A [3],no measurable agonism
"COc1ccc(F)cc1C1CC1CNCc1ccccc1C(N)=O (racemic) [(±)-25, 2-[[[[2-(5-Fluoro-2-methoxyphenyl)cyclopropyl]methyl]amino]methyl]benzamide Hydrochloride]",Emax,[1],< 35%
CNc1nc(Cc2ccccc2)cc2c1CCNCC2 [PF-04781340],selectivity over 5-HT2B,5-HT2B [2],about 160 fold
same,5-HT2C Emax,5-HT2C [4],99%
same,EC50,5-HT2C [4]; read-out: 5-HT2C EC50,9 nM
"CNC[C@H]1C[C@@H]1c1cc(F)ccc1OC.Cl [(+)-15a, (+)-1-[(1S,2S)-2-(5-Fluoro-2-methoxyphenyl)cyclopropyl]-N-methylmethanamine Hydrochloride]",β-arrestin recruitment activity,[5],no β-arrestin recruitment activity
same,Ki,5-HT2C [6],81 nM
"COc1ccc(F)cc1C1CC1CNCc1ccccc1O.Cl (racemic) [(±)-22, 2-[[[[2-(5-Fluoro-2-methoxyphenyl)cyclopropyl]methyl]amino]methyl]phenol Hydrochloride]",selectivity for 5-HT2C over 5-HT2B,5-HT2B [7],full selectivity
"COc1ccc(F)cc1C1CC1CNCC1CC1.Cl (racemic) [(±)-17, 1-Cyclopropyl-N-[[2-(5-fluoro-2-methoxyphenyl)cyclopropyl]methyl]methanamine Hydrochloride]",EC50,[1],> 300 nM
same,5-HT2C EC50,[1],lack of activity
"COc1ccc(F)cc1C1CC1CNCc1cccc2cc[nH]c12.Cl (racemic) [(±)-38, 1-[2-(5-Fluoro-2-methoxyphenyl)cyclopropyl)-N-[(1H-indol-7-yl)methyl]methanamine Hydrochloride]",5-HT2C EC50,[1],entirely inactive
"COc1ccc(F)cc1[C@@H]1C[C@H]1CNCc1ccccc1Cl [(−)-27, (–)-N-(2-Chlorobenzyl)-1-[(1R,2R)-2-(5-fluoro-2-methoxyphenyl)cyclopropyl]methanamine Hydrochloride]",Emax,5-HT2A [8],84 ± 3.9%
"C[C@H]1CNCCc2ccc(Cl)cc21 [lorcaserin, reference compound]",effect on amphetamine-induced hyperactivity,C57BL/6J mice [9]; 3 mg/kg IP,reduced amphetamine-induced hyperactivity
same,Emax,[5]; read-out: β-arrestin-2 Emax,97 ± 2.1%
same,effect on PCP-induced hyperactivity,C57BL/6J mice [10]; 3 mg/kg IP,no overall reduction in activity that was statistically significant
same,baseline locomotion,C57BL/6J mice [11]; 3 mg/kg IP,decreased baseline locomotion
"COc1ccc(F)cc1[C@H]1C[C@@H]1CNCc1cccs1.Cl [(+)-32, (+)-1-[(1S,2S)-2-(5-Fluoro-2-methoxyphenyl)cyclopropyl]-N-(thiophen-2-ylmethyl)methanamine Hydrochloride]",β-arrestin recruitment activity,[5],no β-arrestin recruitment activity
same,selectivity for 5-HT2C over 5-HT2B,5-HT2B [7],full selectivity
"COc1ccccc1CNC[C@H]1C[C@@H]1c1cc(F)ccc1OC.Cl [(+)-19, (+)-1-[(1S,2S)-2-(5-Fluoro-2-methoxyphenyl)cyclopropyl]-N-(2-methoxybenzyl)methanamine Hydrochloride]",effect on amphetamine-induced hyperactivity,C57BL/6J mice [9]; 10 mg/kg IP,no significant effect
same,effect on amphetamine-induced hyperactivity,C57BL/6J mice [9]; 20 mg/kg IP,decreased the hyperlocomotion
same,inhibition at 10 µM,CYP3A4,> 50%
same,inhibition at 10 µM,CYP2D6,> 50%
same,effect on PCP-induced hyperactivity,C57BL/6J mice [10]; 10 mg/kg IP,increased locomotion
same,effect on PCP-induced hyperactivity,C57BL/6J mice [10]; 20 mg/kg IP,had no effect on PCP-induced hyperlocomotion
same,baseline locomotion,C57BL/6J mice [11]; 10 mg/kg IP,had no effect
same,baseline locomotion,C57BL/6J mice [11]; 20 mg/kg IP,had no effect
same,off-target affinity,[12],None of the other screened targets were found to display any significant off-target affinity
COc1cc(CC(C)N)c(OC)cc1I (stereo not shown) [DOI],effect on the locomotor effects of PCP,[13],potentiate the locomotor effects of PCP
"COc1ccc(F)cc1C1CC1CNCc1ccccc1C#N (racemic) [(±)-24, 2-[[[[2-(5-Fluoro-2-methoxyphenyl)cyclopropyl]methyl]amino]methyl]benzonitrile Hydrochloride]",Emax,[1],< 35%
